{
  "source": "patent US20250197368A1",
  "about": "(priority 2020, published 2025)",
  "key": {"[1]": {"biological_target": "human α2β3γ2 GABAARs (benzodiazepine site) (Homo sapiens (Human), UniProt P18507+P47869)", "sequence (P47869 29-451)": "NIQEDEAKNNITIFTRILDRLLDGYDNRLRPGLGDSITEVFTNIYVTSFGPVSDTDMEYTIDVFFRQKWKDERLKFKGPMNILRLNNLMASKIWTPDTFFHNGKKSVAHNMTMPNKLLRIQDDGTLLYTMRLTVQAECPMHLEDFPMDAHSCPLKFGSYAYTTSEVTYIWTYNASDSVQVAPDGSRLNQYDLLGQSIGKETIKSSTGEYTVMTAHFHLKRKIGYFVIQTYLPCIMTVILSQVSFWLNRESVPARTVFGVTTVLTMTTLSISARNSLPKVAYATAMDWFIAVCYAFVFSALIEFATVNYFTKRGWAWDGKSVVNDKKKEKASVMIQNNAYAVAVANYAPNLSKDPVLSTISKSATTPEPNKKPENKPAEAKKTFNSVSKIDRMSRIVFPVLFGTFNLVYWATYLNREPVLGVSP", "sequence (P28472 26-473 partner)": "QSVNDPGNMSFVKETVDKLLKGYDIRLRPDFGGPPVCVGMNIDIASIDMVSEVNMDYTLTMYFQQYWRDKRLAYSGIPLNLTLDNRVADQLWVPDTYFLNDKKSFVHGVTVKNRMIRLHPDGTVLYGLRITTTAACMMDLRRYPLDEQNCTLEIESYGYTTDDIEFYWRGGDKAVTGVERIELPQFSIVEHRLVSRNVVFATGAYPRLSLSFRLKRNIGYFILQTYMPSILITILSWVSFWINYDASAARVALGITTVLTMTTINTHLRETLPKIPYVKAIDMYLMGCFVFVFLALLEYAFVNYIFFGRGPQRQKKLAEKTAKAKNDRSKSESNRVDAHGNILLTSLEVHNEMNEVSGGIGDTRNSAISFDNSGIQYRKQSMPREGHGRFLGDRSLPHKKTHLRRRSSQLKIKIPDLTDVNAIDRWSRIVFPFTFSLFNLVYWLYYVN", "sequence (P18507 40-475)": "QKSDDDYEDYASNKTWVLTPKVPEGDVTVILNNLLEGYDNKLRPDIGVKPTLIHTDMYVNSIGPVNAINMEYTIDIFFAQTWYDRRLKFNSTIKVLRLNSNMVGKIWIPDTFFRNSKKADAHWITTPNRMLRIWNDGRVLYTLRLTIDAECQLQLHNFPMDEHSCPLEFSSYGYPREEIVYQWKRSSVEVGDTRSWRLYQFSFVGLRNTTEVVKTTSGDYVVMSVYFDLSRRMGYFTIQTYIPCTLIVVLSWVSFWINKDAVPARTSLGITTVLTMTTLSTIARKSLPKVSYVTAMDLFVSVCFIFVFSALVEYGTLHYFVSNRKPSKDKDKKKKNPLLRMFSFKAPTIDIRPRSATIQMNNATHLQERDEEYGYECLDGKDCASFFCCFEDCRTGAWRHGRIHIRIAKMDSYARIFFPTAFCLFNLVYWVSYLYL", "experiment": "In vitro radioligand binding assay ([3H]Ro15-1788 displacement), α2-GABAAR Ki", "outline": "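Ki derived via Cheng-Prusoff from IC50 for displacement of 4 nM [3H]Ro15-1788 (Kd from saturation binding), with 1-3 μM TP003 defining nonspecific binding. Incubation lasted 1 h at 4° C on membranes of induced L(tk−) cells stably transfected with the human subunits; detection by filtration and scintillation counting.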"}, "human α3β3γ2 GABAARs": {"system": "human α3β3γ2 GABAARs", "experiment": "In vitro electrophysiological recording assay (automated patch-clamp), α3-GABAAR relative efficacy", "type": "cell-based", "conditions": "% efficacy normalised to diazepam; GABA EC10-20; concentration generally >= 100 times Ki", "method": "The efficacy of modulators was evaluated using the automated patch-clamp platforms QPatch16 (Sophion, Copenhagen, Denmark) or SyncroPatch 384PE (Nanion, Germany).\nFor QPatch electrophysiology testing L(tk^−) cells stably expressing human α1β3γ2, α2β3γ2, α3β3γ2, α5β3γ2 GABAARs were used. HEK293 cells stably expressing human α1β3γ2L, α2β3γ2L, α3β3γ2L and α5β3γ2L GABAARs were used for the SyncroPatch 384PE experiments.\nAll experiments were carried out at room temperature (20-22° C.) using a standard whole cell procedure and physiological solutions. Gigaseals were formed upon execution of a combined suction/voltage protocol with subsequent increased suction leading to the whole-cell configuration.\nThe currents recorded were acquired at either 1 KHz or 2 KHz and filtered using a Bessel filter. Whole-cell currents were measured at a holding potential of-65 mV (QPatch) or −80 mV (SyncroPatch).\nFor QPatch experiments, the extracellular solution contained of: 145 mM NaCl, 4 mM KCl, 1 mM MgCl2, 2 mM CaCl2), 10 mM HEPES, 10 mM D-glucose (pH 7.4), and the intracellular solution consisted of: 96 mM KCl, 28 mM CsCl, 25 mM KOH, 4.3 mM CaCl2), 1.4 mM MgCl2, 10 mM EGTA, 10 mM HEPES, 3 mM MgATP (pH 7.2). The osmolarities of the extracellular and intracellular solutions were 305 and 295 mOsm respectively.\nFor SyncroPatch experiments, the extracellular recording solution contained: 140 mM NaCl, 4 mM KCl, 2 mM CaCl2), 1 mM MgCl2, 10 mM HEPES, 5 mM glucose (pH 7.4 with NaOH and osmolarity of c. 300-310 mOsm). The intracellular recording solution consisted of: 90 mM KCl, 50 mM KF, 1.5 mM MgCl2, 11.1 mM EGTA and 10 mM HEPES (pH 7.2 with KOH and osmolarity of c. 300 mOsm). 2 mM of NaATP was added to the intracellular solution on the day of testing.\nThe effects of modulators were evaluated in the presence of a submaximal GABA concentration, giving typically less than 30% activation of the response elicited by a saturating GABA concentration. To check and ensure baseline current stability before compound addition, two to five consecutive applications of GABA EC10-20 separated by wash steps were performed before compound addition. The test compound was applied 1 min at least prior to co-application with GABA EC10-20. Following a further wash step, a saturating concentration of GABA was applied at the end of each recording, allowing the accurate evaluation for each cell of the percentage baseline activation elicited by the submaximal GABA applied.\nThe compounds were first dissolved in DMSO as a 10 mM stock and then further diluted to the testing concentrations so that the final DMSO concentration in the extracellular recording solution was 0.1% (QPatch) or 0.2% (SyncroPatch).\nThe % efficacy of modulators was determined from the GABA elicited currents recorded in the presence and absence of the test compound, using the formula:\n[((compound peak current−leak)−(GABA peak current-leak))/(GABA peak current−leak)]*100,\nwhere ‘leak’ is the leak baseline current at the holding potential, ‘compound peak current’ is the current elicited by co-application of compound and GABA, and ‘GABA peak current’ is the current elicited by GABA alone at the last GABA application before compound addition. The results were presented as ‘relative efficacy’ for each compound generally at a concentration equal or higher than 100 times their determined Ki. The relative efficacy of a compound was calculated by normalising its % efficacy to the corresponding % efficacy of diazepam that was separately determined."}},
  "data": [
    {"smiles": "CCCNC(=O)c1c(N)c2cccc(-c3cnccc3OC)c2[nH]c1=O", "note": "[Example 17, 4-Amino-8-(4-methoxy-3-pyridyl)-2-oxo-N-propyl-1H-quinoline-3-carboxamide]", "values": [
      {"measurement": "Ki", "setting": "[1]", "result": 1.64, "unit": "nM"},
      {"measurement": "α3-GABAAR Relative Efficacy (vs. Diazepam)", "setting": "human α3β3γ2 GABAARs", "result": 0.42}
    ]},
    {"smiles": "CCCNC(=O)c1c(N)c2cccc(-c3cnc(C)cc3OC)c2[nH]c1=O", "note": "[Example 18, 4-Amino-8-(4-methoxy-6-methyl-3-pyridyl)-2-oxo-N-propyl-1H-quinoline-3-carboxamide]", "values": [
      {"measurement": "Ki", "setting": "[1]", "result": 9.77, "unit": "nM"},
      {"measurement": "α3-GABAAR Relative Efficacy (vs. Diazepam)", "setting": "human α3β3γ2 GABAARs", "result": 0.21}
    ]},
    {"smiles": "CCCNC(=O)c1c(N)c2cccc(-c3nc(C)ncc3F)c2[nH]c1=O", "note": "[Example 40, 4-Amino-8-(5-fluoro-2-methyl-pyrimidin-4-yl)-2-oxo-N-propyl-1H-quinoline-3-carboxamide]", "values": [
      {"measurement": "Ki", "setting": "[1]", "result": 1.19, "unit": "nM"},
      {"measurement": "α3-GABAAR Relative Efficacy (vs. Diazepam)", "setting": "human α3β3γ2 GABAARs", "result": 0.31}
    ]}
  ]
}
